In patent US8119663B2, “Heteroaryl-substituted piperidines” (Bayer Pharma Aktiengesellschaft, priority 2007, dated 2012):
Counter-ions that a name gives are not always drawn.

Target: T1, human protease activated receptor 1 (PAR1) (Homo sapiens, UniProt P25116)
T1 construct: the cell stably expresses the endogenous human PAR1 receptor and the endogenous purinergic receptor P2Y2; endogenous in cells; host or cells: HEK293-derived recombinant cell line constitutively expressing mitochondrial aequorin
T1 sequence (P25116 22-425): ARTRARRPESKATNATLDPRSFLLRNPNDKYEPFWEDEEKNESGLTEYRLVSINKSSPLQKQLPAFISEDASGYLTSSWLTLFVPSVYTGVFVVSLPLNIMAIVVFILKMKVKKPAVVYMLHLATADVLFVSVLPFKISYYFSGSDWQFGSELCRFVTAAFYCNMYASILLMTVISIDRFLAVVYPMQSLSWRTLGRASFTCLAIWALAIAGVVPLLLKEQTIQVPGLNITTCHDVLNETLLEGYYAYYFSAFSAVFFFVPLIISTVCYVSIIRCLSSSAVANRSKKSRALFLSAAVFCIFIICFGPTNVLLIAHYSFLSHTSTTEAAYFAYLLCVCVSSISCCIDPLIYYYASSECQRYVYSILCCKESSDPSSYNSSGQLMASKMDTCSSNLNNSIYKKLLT
Test: Cellular functional in vitro test (aequorin luminescence, PAR1 test cell)
Format: cell-based
Conditions: recombinant HEK293-derived cell line expressing aequorin; PAR1 agonist added at its EC50 5 minutes after test substance
Text: 1.a) Cellular Functional In vitro Test
A recombinant cell line is used to identify […] of the human protease activated receptor 1 (PAR1) and to quantify the activity of the substances described herein. The cell is originally derived from a human embryonal kidney cell (HEK293; ATCC: American Type Culture Collection, Manassas, Va. 20108, USA). The test cell line constitutively expresses a modified form of the calcium-sensitive photoprotein aequorin which, after reconstitution with the cofactor coelenterazine, emits light when the free calcium concentration in the inner mitochondrial compartment is increased (Rizzuto R, Simpson A W, Brini M, Pozzan T.; Nature 1992, 358, 325-327). Additionally, the cell stably expresses the endogenous human PAR1 receptor and the endogenous purinergic receptor P2Y2. The resulting PAR1 test cell responds to stimulation of the endogenous PAR1 or P2Y2 receptor with an intracellular release of calcium ions, which can be quantified through resulting aequorin luminescence with a suitable luminometer (Milligan G, Marshall F, Rees S, Trends in Pharmacological Sciences 1996, 17, 235-237).
For testing the substance specificity, its effect after activation of the endogenous PAR1 receptor is compared to the effect after activation of the endogenous purinergic P2Y2 receptor which utilizes the same intracellular signal path.
Test procedure: The cells are plated out two days (48 hours) before the test in culture medium (DMEM F12, supplemented with 10% FCS, 2 mM glutamine, 20 mM HEPES, 1.4 mM pyruvate, 0.1 mg/ml gentamycin, 0.15% Na bicarbonate; BioWhittaker Cat.# BE04-687Q; B-4800 Verviers, Belgium) in 384-well microtitre plates and kept in a cell incubator (96% atmospheric humidity, 5% V/V CO2, 37° C.). On the day of the test, the culture medium is replaced by a tyrode solution (in mM: 140NaCl, 5l KCl, 1MgCl2, 2CaCl2, 20 glucose, 20 HEPES), which additionally contains the cofactor coelenterazine (25 μM) and glutathione (4 mM), and the microtitre plate is then incubated for a further 3-4 hours. The test substances are then pipetted onto the microtitre plate, and 5 minutes after the transfer of the test substances into the wells of the microtitre plate the plate is transferred into the luminometer, a PAR1 agonist concentration which corresponds to the EC50 is added and the resulting light signal is immediately measured in the luminometer. To distinguish an antagonist substance action from a toxic action, the endogenous purinergic receptor is immediately subsequently activated with agonist (ATP, final concentration 10 μM) and the resulting light signal is measured.

| IC50 [nM] | Compound |
| --- | --- |
| 4.16 | CN(C)Cc1nnc(C2CC(c3ccc(OC(F)(F)F)cc3)CN(C(=O)N3CCOCC3)C2)o1 (racemic) [Example 470, {3-{5-[(Dimethylamino)methyl]-1,3,4-oxadiazol-2-yl}-5-[4-(trifluoromethoxy)phenyl]piperidin-1-yl}(morpholin-4-yl)methanone] |
| 23.4 | CC(C)Cc1nnc(C2CC(c3ccc(OC(F)(F)F)cc3)CN(C(=O)N3CCOCC3)C2)o1 (racemic) [Example 474, {3-[5-(2-Methylpropyl)-1,3,4-oxadiazol-2-yl]-5-[4-(trifluoromethoxy)phenyl]piperidin-1-yl}-(morpholin-4-yl)methanone] |
| 76.6 | CCSCc1csc(C2CC(c3ccc(CC)cc3)CN(C(=O)N3CCOCC3)C2)n1 (racemic) [Example 484, [3-(4-Ethylphenyl)-5-{4-[(ethylsulphanyl)methyl]-1,3-thiazol-2-yl}piperidin-1-yl](morpholin-4-yl)methanone] |
| 107 | CC(C)(C)c1csc(C2CC(c3ccc(OC(F)(F)F)cc3)CN(C(=O)N3CCOCC3)C2)n1 (racemic) [Example 487, {3-(4-tert-Butyl-1,3-thiazol-2-yl)-5-[4-(trifluoromethoxy)phenyl]piperidin-1-yl}(morpholin-4-yl)-methanone] |
| 25.1 | CCc1csc(C2CC(c3ccc(OC(F)(F)F)cc3)CN(C(=O)N3CCOCC3)C2)n1 (racemic) [Example 490, {3-(4-Ethyl-1,3-thiazol-2-yl)-5-[4-(trifluoromethoxy)phenyl]piperidin-1-yl}(morpholin-4-yl)-methanone] |
| 5.67 | CC(C)c1nnc(C2CC(c3ccc(OC(F)(F)F)cc3)CN(C(=O)N3CCOCC3)C2)s1 (racemic) [Example 494, Morpholin-4-yl{3-[5-(propan-2-yl)-1,3,4-thiadiazol-2-yl]-5-[4-(trifluoromethoxy)phenyl]piperidin-1-yl}methanone] |
| 3.51 | O=C(N1CCOCC1)N1CC(c2ccc(OC(F)(F)F)cc2)CC(c2nnc(-c3ccccc3)s2)C1 (racemic) [Example 495, Morpholin-4-yl{3-(5-phenyl-1,3,4-thiadiazol-2-yl)-5-[4-(trifluoromethoxy)phenyl]piperidin-1-yl}-methanone] |
| 5.16 | O=C(N1CCOCC1)N1CC(c2ccc(OC(F)(F)F)cc2)CC(c2nc(C3CCC3)no2)C1 (racemic) [Example 513, {3-(3-Cyclobutyl-1,2,4-oxadiazol-5-yl)-5-[4-(trifluoromethoxy)phenyl]piperidin-1-yl}(morpholin-4-yl)methanone] |
| 20.8 | CCc1noc(C2CC(c3ccc(OC(F)(F)F)cc3)CN(C(=O)N3CCC(C#N)CC3)C2)n1 (racemic) [Example 519, 1-({3-(3-Ethyl-1,2,4-oxadiazol-5-yl)-5-[4-(trifluoromethoxy)phenyl]piperidin-1-yl}carbonyl)-piperidine-4-carbonitrile] |
| 11 | CC(C)c1noc(C2CC(c3ccc(OC(F)(F)F)cc3)CN(C(=O)N3CCC(C#N)CC3)C2)n1 (racemic) [Example 520, 1-({3-[3-(Propan-2-yl)-1,2,4-oxadiazol-5-yl]-5-[4-(trifluoromethoxy)phenyl]piperidin-1-yl}-carbonyl)piperidine-4-carbonitrile] |
| 18.8 | CN(C)Cc1nc(C2CC(c3ccc(C(F)(F)F)cc3)CN(C(=O)N3CCOCC3)C2)no1 (single isomer, unassigned) [Example 170, {3-{5-[(Dimethylamino)methyl]-1,2,4-oxadiazol-3-yl}-5-[4-(trifluoromethyl)phenyl]piperidin-1-yl}(morpholin-4-yl)methanone hydrochloride] |
| 17.1 | COCCc1noc(C2CC(c3ccc(OC(F)(F)F)cc3)CN(C(=O)N3CCOCC3)C2)n1 (single isomer, unassigned) [Example 178, {3-[3-(2-Methoxyethyl)-1,2,4-oxadiazol-5-yl]-5-[4-(trifluoromethoxy)phenyl]piperidin-1-yl}-(morpholin-4-yl)methanone] |
| 66.1 | COCCc1noc(C2CC(c3cccc(OC(F)(F)F)c3)CN(C(=O)N3CCOCC3)C2)n1 (single isomer, unassigned) [Example 194, {3-[3-(2-Methoxyethyl)-1,2,4-oxadiazol-5-yl]-5-[3-(trifluoromethoxy)phenyl]piperidin-1-yl}-(morpholin-4-yl)methanone] |
| 5.74 | Cc1noc(C2CC(c3ccc(OC(F)(F)F)cc3)CN(C(=O)N3CCOCC3)C2)n1 (single isomer, unassigned) [Example 239, {3-(3-Methyl-1,2,4-oxadiazol-5-yl)-5-[4-(trifluoromethoxy)phenyl]piperidin-1-yl}(morpholin-4-yl)methanone] |
| 11.4 | Cc1noc(C2CC(c3ccc(C(F)(F)F)cc3)CN(C(=O)N3CCC(O)CC3)C2)n1 (single isomer, unassigned) [Example 260, (4-Hydroxypiperidin-1-yl){(3-(3-methyl-1,2,4-oxadiazol-5-yl)-5-[4-trifluoromethyl)phenyl]-piperidin-1-yl}methanone] |
| 10.3 | COCCc1noc(C2CC(c3ccc(C(F)(F)F)cc3)CN(C(=O)N3CCC(O)CC3)C2)n1 (single isomer, unassigned) [Example 275, (4-Hydroxypiperidin-1-yl) {3-[3-(2-methoxyethyl)-1,2,4-oxadiazol-5-yl]-5-[4-(trifluoromethyl)-phenyl]piperidin-1-yl}methanone] |
| 25.3 | COCCc1noc(C2CC(c3ccc(C(F)(F)F)cc3)CN(C(=O)N3CCC(O)CC3)C2)n1 (single isomer, unassigned) [Example 276, (4-Hydroxypiperidin-1-yl) {3-[3-(2-methoxyethyl)-1,2,4-oxadiazol-5-yl]-5-[4-(trifluoromethyl)-phenyl]piperidin-1-yl}methanone] |
| 14.7 | COCCc1noc(C2CC(c3ccc(C(F)(F)F)cc3)CN(C(=O)N3CC(O)C3)C2)n1 (single isomer, unassigned) [Example 279] |
| 3.01 | COCCc1noc(C2CC(c3ccc(OC(F)(F)F)c(C)c3)CN(C(=O)N3CCOCC3)C2)n1 (single isomer, unassigned) [Example 322, {3-[3-(2-Methoxyethyl)-1,2,4-oxadiazol-5-yl]-5-[3-methyl-4-(trifluoromethoxy)phenyl]piperidin-1-yl}(morpholin-4-yl)methanone] |
| 25.1 | Cc1noc(C2CC(c3ccc(C(F)(F)F)cc3)CN(C(=O)N3CCOCC3)C2)n1 (single isomer, unassigned) [Example 335, {3-(3-Methyl-1,2,4-oxadiazol-5-yl)-5-[4-(trifluoromethyl)phenyl]piperidin-1-yl}(morpholin-4-yl)-methanone] |
| 86.3 | COCCc1noc(C2CC(c3ccc(OC(F)(F)F)cc3)CN(C(=O)N3CCC(O)CC3)C2)n1 (single isomer, unassigned) [Example 449, (4-Hydroxypiperidin-1-yl) {3-[3-(2-methoxyethyl)-1,2,4-oxadiazol-5-yl]-5-[4-(trifluoromethoxy)-phenyl]piperidin-1-yl}methanone] |
| 19.6 | CC(C)c1noc(C2CC(c3ccc(OC(F)(F)F)cc3)CN(C(=O)N3CCC(O)CC3)C2)n1 (single isomer, unassigned) [Example 451, (4-Hydroxypiperidin-1-yl){3-[3-(propan-2-yl)-1,2,4-oxadiazol-5-yl]-5-[4-(trifluoromethoxy)phenyl]piperidin-1-yl}methanone] |
